Experiments:
[1] = biological target: T1, AcelDop (in complex with AcelPup deltaN43) (Acidothermus cellulolyticus, UniProt A0LU48); experiment: X-ray crystal structures, […]-1.[…] A; format: binding; conditions: with PupE deltaN43 and MgF3(H2O)- (7OYF), phosphorylated PupE, Mg2+/K+ (7OY3; ADP formed in crystal soaked with ATP) or MgF4 2- (7OYH); nucleotide site
T1 construct: gene dop; C-terminal TEV-His6 tag cleaved, E. coli Rosetta (DE3); Pup fragment deltaN43 (PupQ, PupE or PupBSO) synthetic; with Prokaryotic ubiquitin-like protein Pup
T1 sequence (A0LU49 44-71 E71Q): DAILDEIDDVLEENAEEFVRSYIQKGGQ
T1 sequence (A0LU48 whole entry, the tested form may be a part): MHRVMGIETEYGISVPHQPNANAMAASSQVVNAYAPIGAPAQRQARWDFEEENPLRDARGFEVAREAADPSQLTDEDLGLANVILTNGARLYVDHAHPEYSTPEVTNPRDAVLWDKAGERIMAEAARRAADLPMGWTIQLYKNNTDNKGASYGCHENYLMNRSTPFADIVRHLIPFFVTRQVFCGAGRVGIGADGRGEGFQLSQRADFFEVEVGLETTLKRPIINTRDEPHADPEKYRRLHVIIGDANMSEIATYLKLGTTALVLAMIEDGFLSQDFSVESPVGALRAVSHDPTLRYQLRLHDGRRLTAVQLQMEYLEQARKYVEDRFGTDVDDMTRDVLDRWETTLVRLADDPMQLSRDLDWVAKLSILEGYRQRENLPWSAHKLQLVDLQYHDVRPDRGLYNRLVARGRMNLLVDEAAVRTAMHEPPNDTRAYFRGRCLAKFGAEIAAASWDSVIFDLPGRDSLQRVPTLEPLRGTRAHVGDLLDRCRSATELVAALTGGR

[2] = biological target: T1, AcelDop (in complex with AcelPup deltaN43); experiment: intact mass spectrometry of phosphorylated PupBSO; format: biochemical; conditions: 2 mM ATP, PupBSO deltaN43 as phosphoryl acceptor, 20 mM MgCl2, pH 8.0, 30 C
[3] = biological target: T1, AcelDop (in complex with AcelPup deltaN43); experiment: X-ray crystal structure, […] A; format: binding; conditions: co-crystal with PupQ deltaN43 and Mg2+; nucleotide site, about 72 % occupancy

With Nc1ncnc2c1ncn2[C@@H]1O[C@H](COP(=O)(O)OP(=O)(O)O)[C@@H](O)[C@H]1O [ADP] as the molecule, how does the “X-ray crystal structures, 1.75-1.88 A” value [1] read?
The value was “We solved the structure of a Dop-Pup complex with a square planar MgFx species bound between ADP and Pup”.

With Nc1ncnc2c1ncn2[C@@H]1O[C@H](COP(=O)(O)OP(=O)(O)OP(=O)(O)O)[C@@H](O)[C@H]1O [ATP] as the molecule, how does the “intact mass spectrometry of phosphorylated PupBSO” value [2] read?
The value was “Dop indeed forms a phosphorylated PupBSO species in the presence of ATP”.

For Nc1ncnc2c1ncn2[C@@H]1O[C@H](COP(=O)(O)OP(=O)(O)CP(=O)(O)O)[C@@H](O)[C@H]1O [AMP-PCP], which “X-ray crystal structure, 1.65 A” value [3] is on record?
The value was “crystals of the enzyme in complex with the PupQ fragment and AMP-PCP”.
